From patent publication US8754226B2, “Piperidinyl-substituted lactams as GPR119 modulators” (Array BioPharma Inc., priority 2010, dated 2014)
Counter-ions that a name gives are not always drawn.

Tested on: modified version of the GPR119 receptor (94% identity to human receptor)
Assay: cAMP production assay (LANCE cAMP kit, TR-FRET) in HEK-293 cells
Type: cell-based
Details: for cAMP production in HEK-293 cells: HEK-293 cells stably expressing modified GPR119, test compounds 0.2 nM to 10 μM, one-hour incubation at ambient temperature; for Fold over baseline: increase in cAMP relative to basal levels, agonist activity if 1.5-fold or greater
Experimental: The assay utilized HEK-293 cells that stably express a modified version of the GPR119 receptor (94% identity to human receptor), under the control of a CMV promoter containing a tet-on element for tetracycline-inducible expression. GPR119 agonist-induced cyclic AMP (cAMP) production was measured in this cell line using the LANCE cAMP kit (Perkin Elmer, Waltham, Mass.). To generate a working stock of cells for the assay, cells were treated overnight with 1 μg/mL doxycycline at 37° C. in the presence of 5% CO2 to induce receptor expression. Cells were then harvested by enzymatic dissociation with 0.05% trypsin, resuspended in freezing medium (DMEM growth medium with 10% each of fetal bovine serum and DMSO), aliquoted and frozen at −80° C. On the day of the assay, frozen cells were thawed, washed 1× in PBS and resuspended in Hank's buffered salt solution (HBSS) containing 5 mM HEPES, 0.1% BSA and Alexa Fluor 647-conjugated anti-cAMP antibody (diluted 1:100). The cell suspension was then transferred to a Proxiplate Plus white 384-well assay plate (Perkin-Elmer) at 2000 cells/well. Test compounds at final concentrations ranging from 0.2 nM to 10 μM were added to the assay plate, followed by a one-hour incubation at ambient temperature (volume=10 μL/well). DMSO concentration was held constant at 0.5%. After incubation with test compounds, 10 μL of a detergent buffer containing a biotinylated cAMP/Europium-conjugated streptavidin complex (Europium-labeled cAMP tracer) were added to each well on the assay plate, followed by a 2-hour incubation at ambient temperature. During this incubation cAMP released from lysed cells competes with the Europium-labeled cAMP tracer for binding to the Alexa Fluor 647-conjugated antibody. […] Cellular cAMP levels were then determined by interpolation of raw signal data using a cAMP standard curve. Compounds were determined to have agonist activity if they stimulated a 1.5-fold or greater increase in cAMP relative to basal levels.

Structure (SMILES): CS(=O)(=O)c1ccc(N[C@H]2CCN(C3CCN(c4ncc(Cl)cc4C#N)CC3)C2=O)c(F)c1 [Example 116, (S)-5-chloro-2-(4-(3-(2-fluoro-4-(methylsulfonyl)phenyl-amino)-2-oxopyrrolidin-1-yl)piperidin-1-yl)nicotinonitrile]
- cAMP production in HEK-293 cells: 10.2 nmol
- Fold over baseline: 2.1

Structure (SMILES): CS(=O)(=O)c1ccc(O[C@H]2CCN(C3CCN(c4ncc(C(F)(F)F)cc4F)CC3)C2=O)cn1 [Example 142, (S)-1-(1-(3-fluoro-5-(trifluoromethyl)pyridin-2-yl)piperidin-4-yl)-3-(6-(methylsulfonyl)pyridin-3-yloxy) pyrrolidin-2-one]
- cAMP production in HEK-293 cells: 21.7 nmol
- Fold over baseline: 8.3

Structure (SMILES): CCS(=O)(=O)c1ccc(N[C@H]2CCN(C3CCN(c4ncc(Cl)cc4C#N)CC3)C2=O)cn1 [Example 129, (S)-5-chloro-2-(4-(3-(6-(ethylsulfonyl)pyridin-3-ylamino)-2-oxopyrrolidin-1-yl)piperidin-1-yl)nicotinonitrile]
- cAMP production in HEK-293 cells: 28.4 nmol
- Fold over baseline: 2.1

Structure (SMILES): O=C1[C@@H](Nc2ccc(S(=O)(=O)C3CC3)nc2)CCN1C1CCN(c2ncc(Cl)cc2F)CC1 [Example 126, (S)-1-(1-(5-chloro-3-fluoropyridin-2-yl)piperidin-4-yl)-3-(6-(cyclopropylsulfonyl)pyri-din-3-ylamino)pyrrolidin-2-one]
- cAMP production in HEK-293 cells: 10.4 nmol
- Fold over baseline: 2.4

Structure (SMILES): CS(=O)(=O)c1ccc(N[C@H]2CCN(C3CCN(c4cncc(Cl)n4)CC3)C2=O)c(F)c1 [Example 18, (S)-1-(1-(6-chloropyrazin-2-yl)piperidin-4-yl)-3-(2-fluoro-4-(methylsulfonyl)phenylamino) pyrrolidin-2-one]
- cAMP production in HEK-293 cells: 7.7 nmol
- Fold over baseline: 1.8

Structure (SMILES): CS(=O)(=O)c1cc(F)c(N[C@H]2CCN(C3CCN(c4ncc(C(F)(F)F)cc4Cl)CC3)C2=O)c(F)c1 [Example 108, (S)-1-(1-(3-chloro-5-(trifluoromethyl)pyridin-2-yl)piperidin-4-yl)-3-(2,6-difluoro-4-(methylsulfonyl)phenyl-amino)pyrrolidin-2-one]
- cAMP production in HEK-293 cells: 15.8 nmol
- Fold over baseline: 2.6

Structure (SMILES): CS(=O)(=O)c1cc(F)c(N[C@H]2CCN(C3CCN(c4ncc(Cl)cc4Cl)CC3)C2=O)cc1F [Example 113, (S)-1-(1-(3,5-dichloropyridin-2-yl)piperidin-4-yl)-3-(2,5-difluoro-4-(methylsulfonyl)phenyl-amino)pyrrolidin-2-one]
- cAMP production in HEK-293 cells: 29.1 nmol
- Fold over baseline: 2.1

Structure (SMILES): CS(=O)(=O)c1ccc(N[C@H]2CCN(C3CCN(c4ncc(Br)cn4)CC3)C2=O)c(F)c1 [Example 7, (S)-1-(1-(5-bromopyrimidin-2-yl)piperidin-4-yl)-3-(2-fluoro-4-(methylsulfonyl)phenylamino)pyrrolidin-2-one]
- cAMP production in HEK-293 cells: 7.7 nmol
- Fold over baseline: 2.4

Structure (SMILES): CCc1cnc(N2CCC(N3CC[C@H](Nc4c(F)cc(S(C)(=O)=O)cc4F)C3=O)CC2)nc1 [Example 21, (S)-3-(2,6-difluoro-4-(methylsulfonyl)phenylamino)-1-(1-(5-ethylpyrimidin-2-yl)piperidin-4-yl)pyrrolidin-2-one]
- cAMP production in HEK-293 cells: 6.6 nmol
- Fold over baseline: 1.9

Structure (SMILES): CS(=O)(=O)c1cc(F)c(N[C@H]2CCN(C3CCN(c4ccc(C(F)(F)F)cn4)CC3)C2=O)cc1F [Example 100, (S)-3-(2,5-difluoro-4-(methylsulfonyl)phenylamino)-1-(1-(5-(trifluoromethyl)pyridin-2-yl)piperidin-4-yl)pyrrolidin-2-one]
- cAMP production in HEK-293 cells: 8.4 nmol
- Fold over baseline: 2.6

Structure (SMILES): Cc1cnc(N2CCC(N3CCC[C@H](Nc4ccc(S(C)(=O)=O)cc4F)C3=O)CC2)nc1 [Example 43, (S)-3-(2-fluoro-4-(methylsulfonyl)phenylamino)-1′-(5-methylpyrimidin-2-yl)-[1,4′-bipiperidin]-2-one]
- cAMP production in HEK-293 cells: 6.9 nmol
- Fold over baseline: 1.7

Structure (SMILES): CS(=O)(=O)c1cc(F)c(N[C@H]2CCN(C3CCN(c4ncc(C(F)(F)F)cc4F)CC3)C2=O)c(F)c1 [Example 117, (S)-3-(2,6-difluoro-4-(methylsulfonyl)phenyl-amino)-1-(1-(3-fluoro-5-(trifluoromethyl)pyridin-2-yl)piperidin-4-yl)pyrrolidin-2-one]
- cAMP production in HEK-293 cells: 31.1 nmol
- Fold over baseline: 4.0

Structure (SMILES): CCc1cnc(N2CCC(N3CCC[C@H](Oc4cc(F)c(S(C)(=O)=O)cc4F)C3=O)CC2)nc1 [Example 165, (S)-3-(2,5-difluoro-4-(methylsulfonyl)phenoxy)-1′-(5-ethylpyrimidin-2-yl)-[1,4′-bipiperidin]-2-one]
- cAMP production in HEK-293 cells: 16.0 nmol
- Fold over baseline: 3.2

Structure (SMILES): O=C1[C@@H](Oc2ccc(-n3cncn3)cc2)CCN1C1CCN(c2ncc(C(F)(F)F)cc2Cl)CC1 [Example 141, (S)-3-(4-(1H-1,2,4-triazol-1-yl)phenoxy)-1-(1-(3-chloro-5-(trifluoromethyl)pyridin-2-yl)piperidin-4-yl)pyrrolidin-2-one]
- cAMP production in HEK-293 cells: 15.5 nmol
- Fold over baseline: 3.7

Structure (SMILES): CCc1cnc(N2CCC(N3CC[C@H](N(C)c4cc(F)c(S(C)(=O)=O)cc4F)C3=O)CC2)nc1 [Example 37, (S)-3-((2,5-difluoro-4-(methylsulfonyl)phenyl)(methyl)amino)-1-(1-(5-ethylpyrimidin-2-yl)piperidin-4-yl)pyrrolidin-2-one trifluoroacetate]
- cAMP production in HEK-293 cells: 23.4 nmol
- Fold over baseline: 3.4

Structure (SMILES): CS(=O)(=O)c1ccc(N[C@H]2CCN(C3CCN(c4ncc(-c5ccccc5)cn4)CC3)C2=O)c(F)c1 [Example 9, (S)-3-(2-fluoro-4-(methyl-sulfonyl)phenylamino)-1-(1-(5-phenylpyrimidin-2-yl)piperidin-4-yl)pyrrolidin-2-one]
- cAMP production in HEK-293 cells: 13.5 nmol
- Fold over baseline: 2.3

Structure (SMILES): CS(=O)(=O)c1ccc(O[C@H]2CCN(C3CCN(c4ncc(C(F)(F)F)cc4Cl)CC3)C2=O)c(F)c1 [Example 136, (S)-1-(1-(3-chloro-5-(trifluoromethyl)pyridin-2-yl)piperidin-4-yl)-3-(2-fluoro-4-(methyl-sulfonyl)phenoxy)pyrrol-idin-2-one]
- cAMP production in HEK-293 cells: 36.5 nmol
- Fold over baseline: 3.0

Structure (SMILES): CS(=O)(=O)c1ccc(N[C@H]2CCN(C3CCN(c4cnc(C#N)cn4)CC3)C2=O)c(F)c1 [Example 14, (S)-5-(4-(3-(2-fluoro-4-(methylsulfonyl)phenylamino)-2-oxopyrrolidin-1-yl)piperidin-1-yl)pyrazine-2-carbonitrile]
- cAMP production in HEK-293 cells: 32.3 nmol
- Fold over baseline: 5.5

Structure (SMILES): O=C(c1ccc(O[C@H]2CCN(C3CCN(c4ncc(C(F)(F)F)cc4Cl)CC3)C2=O)c(F)c1)N1CCCC1 [Example 151]
- cAMP production in HEK-293 cells: 35.8 nmol
- Fold over baseline: 4.7

Structure (SMILES): CCc1ncc(N2CCC(N3CC[C@H](Nc4ccc(S(C)(=O)=O)cc4F)C3=O)CC2)cn1 [Example 159, (S)-1-(1-(2-ethylpyrimidin-5-yl)piperidin-4-yl)-3-(2-fluoro-4-(methylsulfonyl)phenylamino)pyrrolidin-2-one]
- cAMP production in HEK-293 cells: 8.0 nmol
- Fold over baseline: 2.0
